# In patent US10383861B2, “3-(1H-pyrrolo[2,3-C]pyridin-2-yl)-1H-pyrazolo[3,4-C]pyridines and therapeutic uses thereof” (Samumed, LLC, priority 2015, dated 2019):
# Columns and labels:
# Format in all cases: cell-based
# [1] = tested on: IL-6; test: IL-6 inhibition in LPS-stimulated THP-1 cells (HTRF); settings: Homo sapiens; for EC50: THP-1 cells, LPS 500 ng/mL, 22 hours, IL6 HTRF; for inhibition at 10 µM: THP-1, read-out: percent inhibition at 10 μM
# Protocol: THP-1 cells were cultured in basal media with 1% FBS for 24 hours before the start of the assay. […] THP-1 cells were plated at 5000 cells/well in the 384-well plates and incubated at 37° C. for 2 h. 500 ng/mL of LPS was added after 2 hours and cells were incubated for another 22 hours at 37° C. Plates were spun in a centrifuge for 1 minute at […] and a mixture of anti-IL6 XL665, and anti-IL6 Cryptate diluted in reconstitution buffer (Cisbio Inc.) was added to each well. Following incubation for 3 hrs at room temperature, Homogeneous Time-Resolved Fluorescence (HTRF) was measured using the Envision (Perkin Elmer) at 665 nm and […]. The ratio of fluorescence at 665 nm to 620 nm was used as a readout for IL6 quantification. All samples were processed in duplicate. Readings were normalized to DMSO treated cells and normalized activities were utilized for EC50 calculations using the dose-response log (inhibitor) vs. response -variable slope (four parameters) nonlinear regression feature available in GraphPad Prism 5.0 (or Dotmatics).
# [2] = tested on: primary human mesenchymal stem cells (hMSCs); test: Induction of chondrogenesis in hMSCs (nodule count, Rhodamine B/Nile Red); settings: 6 days; for EC50: concentration required to induce 50% levels of chondrogenesis vs TGF-β3, read-out: Conc (nM) of 50% TGF-β3 activity; for Emax: relative to TGF-β3 (10 ng/mL) positive control, read-out: Max. Activity as % TGF-β3 activity
# From the text: Representative compounds were screened using primary human mesenchymal stem cells (hMSCs) to determine their ability to induce chondrogenesis (process by which cartilage is developed).
# Primary human mesenchymal stem cells (hMSCs) were purchased from Lonza (Walkersville, Md.) and expanded in Mesenchymal Stem Cell Growth Media (Lonza). Cells between passage 3 and 6 were used for the experiments.
# To image chondrogenic nodules, the cells were fixed using 4% formaldehyde (Electron Microscopy Sciences), and stained with 2 μg/mL Rhodamine B (Sigma-Aldrich) and 20 μM Nile Red (Sigma-Aldrich) [Johnson K., et.al, A Stem Cell-Based Approach to Cartilage Repair, Science, (2012). […] Number of nodules in each well was normalized to the average of 3 DMSO treated wells on the same plate using Excel (Microsoft Inc.). The normalized averages (fold change over DMSO) of 3 replicate wells for each compound concentration were calculated. Due to solubility limitations of some of the compounds, curve fitting was incomplete leading to inaccurate EC50 determinations.
# Using TGF-β3 as a positive control, the concentration of representative compounds required to induce 50% levels of chondrogenesis is reported. In addition, the maximum activity of each compound and the respective dose that each compound reached maximum chondrogenesis activity is reported.
# [3] = tested on: Wnt activity; test: Wnt activity screening assay, Sp5-Luc reporter gene in SW480 cells; settings: Homo sapiens; for EC50: Sp5-Luc reporter, SW480 cells, overnight incubation; for inhibition at 10 µM: SW480, read-out: percent inhibition at 10 μM
# From the text: The screening assay for Wnt activity is described as follows. Reporter cell lines can be generated by stably transducing cancer cell lines (e.g., colon cancer) or primary cells (e.g., IEC-6 intestinal cells) with a lentiviral construct that includes a Wnt-responsive promoter driving expression of the firefly luciferase gene.
# SW480 colon carcinoma cells were transduced with a lentiviral vector expressing luciferase with a human Sp5 promoter consisting of a sequence of eight TCF/LEF binding sites. SW480 cells stably expressing the Sp5-Luc reporter gene and a hygromycin resistance gene were selected by treatment with 150 μg/mL of hygromycin for 7 days. These stably transduced SW480 cells were expanded in cell culture and used for all further screening activities. […] For Sp5-Luc reporter gene assays, the cells were plated at 4,000 cells/well in 384-well plates with medium containing 1% fetal bovine serum and incubated overnight at 37° C. and 5% CO2. Following incubation, 20 μl of BrightGlo luminescence reagent (Promega) was added to each well of the 384-well assay plates. The plates were placed on an orbital shaker for 2 min and then luminescence was quantified using the Envision (Perkin Elmer) plate reader. Readings were normalized to DMSO only treated cells, and normalized activities were utilized for EC50 calculations using the dose-response log (inhibitor) vs. response -variable slope (four parameters) nonlinear regression feature available in GraphPad Prism 5.0 (or Dotmatics).
# [4] = tested on: primary human fibroblasts derived from IPF patients (LL29 cells); test: Inhibition of the fibrotic process: αSMA staining in TGF-β1 treated LL29 fibroblasts; settings: Fibroblast; for EC50: 96 h, LL29 cells, TGF-β1 20 ng/mL, 4 days, % αSMA positive cells; for inhibition at 10 µM: read-out: percent inhibition at 10 μM
# Protocol: Representative compounds were screened using primary human fibroblasts (derived from IPF patients) treated with TGF-β1 to determine their ability to inhibit the fibrotic process.
# LL29 cells are plated at 1,500 cells/well in 80 μL/well F12 medium supplemented with 1% Fetal Bovine Serum. […] Wells treated with TGF-β1 and containing DMSO were used as controls. […] Following incubation for 4 days, SYTOX green nucleic acid stain (Life Technologies [Thermo Fisher Scientific]) was added to the wells at a final concentration of 1 μM and incubated at room temperature for 30 min.
# [5] = tested on: SW480 colon cancer cells; test: Cell viability assay (CellTiter-Blue) in SW480 colon cancer cells; settings: Homo sapiens; for EC50: 96 h, SW480 cell viability, four days, CellTiter-Blue; for inhibition at 10 µM: SW480, read-out: percent inhibition at 10 μM
# Protocol: Representative compounds were screened using the following assay procedure to assess the effect on cell viability as described below.
# Approximately 2×10^3 SW480 colon cancer cells were seeded into each well and allowed to incubate in the presence or absence of compound for four days at 37° C./5% CO2. Eight replicates of DMSO-treated cells served as controls and cells treated with compound were performed in duplicate.
# After incubation, 20 μL of CellTiter-Blue (Promega) was added to each well allowed to incubate for approximately 3 hours. This reagent was a buffered solution which contains resazurin, metabolically active cells were able to reduce rezarurin (blue) into resorufin (pink) which was highly fluorescent. This measured fluorescence was used as a readout for cell viability.
EC50 [1] [nM],EC50 [2] [nM],EC50 [3] [nM],EC50 [5] [nM],SMILES,Emax [2] [%],EC50 [4] [nM],inhibition at 10 µM [4] [%],inhibition at 10 µM [5] [%],inhibition at 10 µM [1] [%],inhibition at 10 µM [3] [%]
975,900,555,264,"Fc1ccc(-c2cncc3[nH]c(-c4n[nH]c5cnc(-c6cncnc6)cc45)cc23)cc1 [Compound 55, 3-(4-(4-Fluorophenyl)-1H-pyrrolo[2,3-c]pyridin-2-yl)-5-(pyrimidin-5-yl)-1H-pyrazolo[3,4-c]pyridine]",81,> 10000,56.4,,,
1060,10,3730,> 10000,"CCNCc1cncc(-c2cc3c(-c4cc5c(-c6cccnc6)cncc5[nH]4)n[nH]c3cn2)c1 [Compound 90, N-((5-(3-(4-(Pyridin-3-yl)-1H-pyrrolo[2,3-c]pyridin-2-yl)-1H-pyrazolo[3,4-c]pyridin-5-yl)pyridin-3-yl)methyl)ethanamine]",68,> 10000,0,13,,
> 10000,100,1340,> 10000,"c1cncc(-c2cc3c(-c4cc5c(-c6cccnc6)cncc5[nH]4)n[nH]c3cn2)c1 [Compound 88, 5-(Pyridin-3-yl)-3-(4-(pyridin-3-yl)-1H-pyrrolo[2,3-c]pyridin-2-yl)-1H-pyrazolo[3,4-c]pyridine]",76,> 10000,82.9,37.4,36.6,
> 10000,30,> 10000,> 10000,"CN(C)Cc1cncc(-c2cc3c(-c4cc5c(-c6ccncc6)cncc5[nH]4)n[nH]c3cn2)c1 [Compound 125, N,N-Dimethyl-1-(5-(3-(4-(pyridin-4-yl)-1H-pyrrolo[2,3-c]pyridin-2-yl)-1H-pyrazolo[3,4-c]pyridin-5-yl)pyridin-3-yl)methanamine]",52,> 10000,2.9,5.3,0,18.7
> 10000,2700,890,734,"Fc1cccc(-c2cncc3[nH]c(-c4n[nH]c5cnc(-c6cccnc6)cc45)cc23)c1 [Compound 4, 3-(4-(3-Fluorophenyl)-1H-pyrrolo[2,3-c]pyridin-2-yl)-5-(pyridin-3-yl)-1H-pyrazolo[3,4-c]pyridine]",64,211,,,26.8,
> 10000,,> 10000,> 10000,"CS(=O)(=O)NCc1cc(F)cc(-c2cncc3[nH]c(-c4n[nH]c5cnc(-c6cncc(NC(=O)C7CCC7)c6)cc45)cc23)c1 [Compound 497, N-(5-(3-(4-(3-Fluoro-5-(methylsulfonamidomethyl)phenyl)-1H-pyrrolo[2,3-c]pyridin-2-yl)-1H-pyrazolo[3,4-c]pyridin-5-yl)pyridin-3-yl)cyclobutanecarboxamide]",15,> 10000,27.8,14.1,0,6.4
3170,,1340,1300,"c1ncc(-c2cc3c(-c4cc5c(N6CCCCC6)cncc5[nH]4)n[nH]c3cn2)cc1OC1CCCCC1 [Compound 607, 5-(5-(Cyclohexyloxy)pyridin-3-yl)-3-(4-(piperidin-1-yl)-1H-pyrrolo[2,3-c]pyridin-2-yl)-1H-pyrazolo[3,4-c]pyridine]",,532,,,,
3150,,940,> 10000,"CC(C)Nc1cncc(-c2cc3c(-c4cc5c(-c6cccnc6)cncc5[nH]4)n[nH]c3cn2)c1 [Compound 96, N-Isopropyl-5-(3-(4-(pyridin-3-yl)-1H-pyrrolo[2,3-c]pyridin-2-yl)-1H-pyrazolo[3,4-c]pyridin-5-yl)pyridin-3-amine]",,624,,25.2,,
> 10000,,1030,> 10000,"Cn1cc(-c2cc3c(-c4cc5c(-c6cc(F)cc(CNS(C)(=O)=O)c6)cncc5[nH]4)n[nH]c3cn2)cn1 [Compound 764, N-(3-Fluoro-5-(2-(5-(1-methyl-1H-pyrazol-4-yl)-1H-pyrazolo[3,4-c]pyridin-3-yl)-1H-pyrrolo[2,3-c]pyridin-4-yl)benzyl)methanesulfonamide]",,2420,,9.3,20,
2470,,937,1290,"CC(C)Nc1cncc(-c2cc3c(-c4cc5c(-c6ccc(F)cc6)cncc5[nH]4)n[nH]c3cn2)c1 [Compound 40, 5-(3-(4-(4-Fluorophenyl)-1H-pyrrolo[2,3-c]pyridin-2-yl)-1H-pyrazolo[3,4-c]pyridin-5-yl)-N-isopropylpyridin-3-amine]",,141,,,,
9560,,3260,1730,"O=C(Nc1cncc(-c2cc3c(-c4cc5c(-c6ccccc6F)cncc5[nH]4)n[nH]c3cn2)c1)C1CCCCC1 [Compound 79, N-(5-(3-(4-(2-Fluorophenyl)-1H-pyrrolo[2,3-c]pyridin-2-yl)-1H-pyrazolo[3,4-c]pyridin-5-yl)pyridin-3-yl)cyclohexanecarboxamide]",,1080,,,,
943,,2380,2980,"CS(=O)(=O)NCc1cc(F)cc(-c2cncc3[nH]c(-c4n[nH]c5cnc(-c6ccccn6)cc45)cc23)c1 [Compound 504, N-(3-Fluoro-5-(2-(5-(pyridin-2-yl)-1H-pyrazolo[3,4-c]pyridin-3-yl)-1H-pyrrolo[2,3-c]pyridin-4-yl)benzyl)methanesulfonamide]",,2010,,,,
> 10000,,> 10000,> 10000,"c1cncc(-c2cncc3[nH]c(-c4n[nH]c5cnc(C6CCNCC6)cc45)cc23)c1 [Compound 553, 5-(Piperidin-4-yl)-3-(4-(pyridin-3-yl)-1H-pyrrolo[2,3-c]pyridin-2-yl)-1H-pyrazolo[3,4-c]pyridine]",,1190,,11,18.1,8.3
